Where two headings read alike, the source gives them in different places.
Key:
EOL-1 AML cell line = test: Single agent cell viability (CellTiterGlo); assay type: cell-based; conditions: Homo sapiens, EOL1, 72 h; EOL-1, single agent, 3 days incubation, CellTiterGlo; read-out: IC50
Protocol: (§1) Cell lines were cultured at 37° C. in a humidified atmosphere containing 5% CO2 and expanded in T-150 flasks. […] In order to analyse the activity of the compounds as single agents, cells were seeded and treated with nine 2-fold serial dilutions of each compound dispensed individually directly into the cell assay plates. […] All the experiments were performed in triplicates. Luminescence was quantified on a multipurpose plate reader. Single agent IC50s were calculated using standard four-parametric curve fitting.

GDM-1 AML cell line = test: Single agent cell viability (CellTiterGlo); assay type: cell-based; conditions: Homo sapiens, 72 h; GDM-1, single agent, 3 days incubation, CellTiterGlo; read-out: IC50
Protocol: as §1

HL-60 AML cell line = test: Single agent cell viability (CellTiterGlo); assay type: cell-based; conditions: Homo sapiens, 72 h; HL-60, single agent, 3 days incubation, CellTiterGlo; read-out: IC50
Protocol: as §1

KG1 AML cell line = test: Single agent cell viability (CellTiterGlo); assay type: cell-based; conditions: 72 h; KG1, single agent, 3 days incubation, CellTiterGlo; read-out: IC50
Protocol: as §1

KG1a AML cell line = test: Single agent cell viability (CellTiterGlo); assay type: cell-based; conditions: Homo sapiens, KG-1a, 72 h; KG1a, single agent, 3 days incubation, CellTiterGlo; read-out: IC50
Protocol: as §1

Kasumi-1 AML cell line = test: Single agent cell viability (CellTiterGlo); assay type: cell-based; conditions: Homo sapiens, 72 h; Kasumi-1, single agent, 3 days incubation, CellTiterGlo; read-out: IC50
Protocol: as §1

ML-2 AML cell line = test: Single agent cell viability (CellTiterGlo); assay type: cell-based; conditions: 72 h; ML-2, single agent, 3 days incubation, CellTiterGlo; read-out: IC50
Protocol: as §1

MOLM-13 AML cell line = test: Single agent cell viability (CellTiterGlo); assay type: cell-based; conditions: Homo sapiens, 72 h; MOLM-13, single agent, 3 days incubation, CellTiterGlo; read-out: IC50
Protocol: as §1

MV4; 11 AML cell line = test: Single agent cell viability (CellTiterGlo); assay type: cell-based; conditions: Homo sapiens, 72 h; MV4; 11, single agent, 3 days incubation, CellTiterGlo; read-out: IC50
Protocol: as §1

Nomo-1 AML cell line = test: Single agent cell viability (CellTiterGlo); assay type: cell-based; conditions: Homo sapiens, 72 h; Nomo-1, single agent, 3 days incubation, CellTiterGlo; read-out: IC50
Protocol: as §1

OCI-AML3 AML cell line = test: Single agent cell viability (CellTiterGlo); assay type: cell-based; conditions: Homo sapiens, OCI-AML-3, 72 h; OCI-AML3, single agent, 3 days incubation, CellTiterGlo; read-out: IC50
Protocol: as §1

PL-21 AML cell line = test: Single agent cell viability (CellTiterGlo); assay type: cell-based; conditions: 72 h; PL-21, single agent, 3 days incubation, CellTiterGlo; read-out: IC50
Protocol: as §1

THP-1 AML cell line = test: Single agent cell viability (CellTiterGlo); assay type: cell-based; conditions: Homo sapiens, 72 h; THP-1, single agent, 3 days incubation, CellTiterGlo; read-out: IC50
Protocol: as §1

[1] = tested on: mononuclear cells from ALL patient samples; test: Cell viability assay (sytox blue flow cytometry) in primary ALL samples; assay type: cell-based; conditions: Homo sapiens, 48 h, combination at 1:1 ratio, read-out: 50% lethal concentration (LC50)
Protocol: Bone marrow or peripheral blood samples from patients with ALL were collected after informed consent in accordance with guidelines approved by The Alfred Hospital Human research ethics committee. Mononuclear cells were isolated by Ficoll-Paque (GE Healthcare, Australia) density-gradient centrifugation, followed by red cell depletion in ammonium chloride (NH4Cl) lysis buffer at 37° C. for 10 minutes. Cells were then re-suspended in phosphate-buffered saline containing 2% Fetal Bovine serum (Sigma, Australia). Mononuclear cells were then suspended in RPMI-1640 (GIBCO, Australia) medium containing penicillin and streptomycin (GIBCO) and heat inactivated fetal bovine serum 15% (Sigma).
Freshly purified mononuclear cells from ALL patient samples were adjusted to a concentration of 2.5×10^5/ml and 100 μL of cells aliquoted per well into 96 well plates (Sigma). Cells were then treated with indicated drugs over a […] concentration range from 1 nM to 10 μM for 48 hours. For combinations assays, drugs were added at a 1:1 ratio from 1 nM to 10 μM and incubated at 37° C. 5% CO2. Cells were then stained with sytox blue nucleic acid stain (Invitrogen, Australia) and fluorescence measured by flow cytometric analysis using the LSR-II Fortessa (Becton Dickinson, Australia). FACSDiva software was used for data collection, and FlowJo software for analysis. Blast cells were gated using forward and side scatter properties. Viable cells excluding sytox blue were determined at 6 concentrations for each drug and the 50% lethal concentration (LC50, in μM) determined.

primary AML samples = primary AML samples (leukemic progenitor cells), 10 nM
[2] = tested on: normal human CD34+ progenitor cells; conditions: 10 nM

## Nc1ccn([C@@H]2O[C@H](CO)[C@@H](O)[C@@H]2O)c(=O)n1 [Cytarabine, cytarabine]
EOL-1 AML cell line
  IC50: 90 nM
GDM-1 AML cell line
  IC50: 30 nM
HL-60 AML cell line
  IC50: 740 nM
KG1 AML cell line
  IC50: 170 nM
KG1a AML cell line
  IC50: 240 nM
Kasumi-1 AML cell line
  IC50: 1020 nM
ML-2 AML cell line
  IC50: 30 nM
MOLM-13 AML cell line
  IC50: 190 nM
MV4; 11 AML cell line
  IC50: 140 nM
Nomo-1 AML cell line
  IC50: 990 nM
OCI-AML3 AML cell line
  IC50: > 2000 nM
PL-21 AML cell line
  IC50: 100 nM
THP-1 AML cell line
  IC50: > 2000 nM
[1]; ALL patient sample 01-046-2018, 48 hours
  CC50: > 100000 nM
[1]; ALL patient sample AH6031524, 48 hours
  CC50: 51600 nM
[1]; ALL patient sample AH6184311, 48 hours
  CC50: 88000 nM
[1]; ALL patient sample AH6196680, 48 hours
  CC50: > 100000 nM
[1]; ALL patient sample AH6198549, 48 hours
  CC50: 10600 nM
[1]; ALL patient sample AH6258921, 48 hours
  CC50: > 100000 nM
[1]; ALL patient sample AH7008157, 48 hours
  CC50: > 100000 nM
[1]; ALL patient sample AH7024700, 48 hours
  CC50: 35900 nM
[1]; ALL patient sample AH7104727, 48 hours
  CC50: > 100000 nM
[1]; ALL patient sample TB 10-05-02, 48 hours
  CC50: > 100000 nM
[1]; ALL patient sample TB 11-08-06, 48 hours
  CC50: > 100000 nM
[1]; ALL patient sample TB 15-06-05, 48 hours
  CC50: > 100000 nM
[1]; ALL patient sample TB 17-06-18, 48 hours
  CC50: > 100000 nM
[1]; ALL patient sample TB120803, 48 hours
  CC50: > 100000 nM
[1]; ALL patient sample TB151005, 48 hours
  CC50: > 100000 nM
Primary AML samples
  clonogenic growth: toxic
[2]
  clonogenic growth: toxic

Source: US11466023B2, “Combination of a Mcl-1 inhibitor and a standard of care treatment for hematologic cancers, uses and pharmaceutical compositions thereof” (LES LABORATOIRES SERVIER, priority 2017, dated 2022)
